Measurements from patent US6544992B1, “Urotensin-II receptor antagonists” (SmithKline Beecham Corporation, priority 1999, dated 2003).

Assays:
[1] = system: rat-isolated aorta; settings: cited from earlier work
[2] = system: human and rat GPR-14; experiment: Radioligand binding, [125I] h-U-II on HEK-293 cell membranes; settings: radioligand binding assay; species of GPR-14 not given
Procedure: HEK-293 cell membranes containing stable cloned human and rat GPR-14 (20 ug/assay) were incubated with 200 pM [125I] h-U-II (200 Ci/mmol^−1 in the presence of increasing concentrations of test compounds in DMSO (0.1 nM to 10 uM), in a final incubation volume of 200 ul (20 mM Tris-HCl, 5 mM MgCl2). Incubation was done for 30 minutes at room temperature followed by filtration GF/B filters with Brandel cell harvester. ^125I labeled U-II binding was quantitated by gamma counting. Nonspecific binding was defined by ^125I U-II binding in the presence of 100 nM of unlabeled human U-II. Analysis of the data was performed by nonlinear least square fitting.

Structure (SMILES)	contractile activity [1]	Ki [2] [nM]
CC(C)[C@H](NC(=O)[C@@H]1CSSC[C@H](NC(=O)[C@H](CC(=O)O)NC(=O)[C@@H]2CCCN2C(=O)[C@@H](NC(=O)[C@@H](N)CCC(=O)O)[C@@H](C)O)C(=O)N[C@@H](Cc2ccccc2)C(=O)N[C@@H](Cc2c[nH]c3ccccc23)C(=O)N[C@@H](CCCCN)C(=O)N[C@@H](Cc2ccc(O)cc2)C(=O)N1)C(=O)O [Human Urotensin-II]	most potent contractile agonist identified to date	–
O=C(NC1CCN(Cc2ccc(OCCN3CCCC3)c3ccccc23)C1)c1ccc(Cl)c(Cl)c1 (centres unmarked) [Example 13]	–	360
